Like-named read-outs stand apart in the source and are kept apart here. One block for each compound: values may come before it.
What was measured:
[1] = target: CDK2/CycA2 (Homo sapiens (Human), UniProt P24941); assay: CDK kinase assay (Caliper, FAM-labeled peptide)
[2] = system: JeKo-1 cells; assay: Tumor regression effect on JeKo-1 xenograft animal model; format: in vivo, NOD/SCID mice; details: 10-100 mg/kg orally once a day, 19 days
Procedure: JeKo-1 cells were cultured in RPMI 1640 medium containing 20% fetal bovine serum. Exponentially growing JeKo-1 cells were collected and resuspended in PBS to a suitable concentration for NOD/SCID mice subcutaneous tumor inoculation. Seventy female mice were inoculated subcutaneously on the right with 5×10^6 JeKo-1 cells, resuspended in PBS and matrigel (1:1). When the average tumor volume reached 134 mm^3, the mice were randomly grouped according to the size of the tumor and were administrated. Forty-eight mice were divided into the experimental group, and the remaining twenty-two mice were not used for experiment. Tumor volume is calculated as: long diameter×short diameter^2/2. […] Efficacy is evaluated according to the relative tumor growth inhibition rate of TGI.
The higher the TGI (%) value illustrates the better the potency; and vice versa.

[3] = BALB/c mice, 200 mg/kg (qd); for observation (mortality) / Body weight (weight loss) / weight loss (in words): oral gavage; for Body weight (weight loss): vs vehicle control; for mice death in each group (6 mice): after treatment for 2 weeks
[4] = target: CDK9/cyclin T1 (Homo sapiens (Human), UniProt P50750); assay: 33P-ATP radiometric CDK kinase inhibitory activity and selectivity test; format: biochemical
Sequence of CDK9/cyclin T1 (P50750 whole entry, species assumed): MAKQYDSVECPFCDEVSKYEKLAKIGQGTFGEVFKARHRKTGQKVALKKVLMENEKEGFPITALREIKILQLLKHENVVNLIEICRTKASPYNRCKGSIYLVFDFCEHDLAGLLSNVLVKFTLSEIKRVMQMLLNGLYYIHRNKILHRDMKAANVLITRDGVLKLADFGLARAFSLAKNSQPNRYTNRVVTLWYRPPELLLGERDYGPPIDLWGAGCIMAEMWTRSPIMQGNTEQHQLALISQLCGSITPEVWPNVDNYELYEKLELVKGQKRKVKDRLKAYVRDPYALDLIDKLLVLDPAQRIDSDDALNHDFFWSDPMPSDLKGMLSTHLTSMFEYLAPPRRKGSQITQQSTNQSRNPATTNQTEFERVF
Sequence of CDK9/cyclin T1 (O60563 whole entry partner, species assumed): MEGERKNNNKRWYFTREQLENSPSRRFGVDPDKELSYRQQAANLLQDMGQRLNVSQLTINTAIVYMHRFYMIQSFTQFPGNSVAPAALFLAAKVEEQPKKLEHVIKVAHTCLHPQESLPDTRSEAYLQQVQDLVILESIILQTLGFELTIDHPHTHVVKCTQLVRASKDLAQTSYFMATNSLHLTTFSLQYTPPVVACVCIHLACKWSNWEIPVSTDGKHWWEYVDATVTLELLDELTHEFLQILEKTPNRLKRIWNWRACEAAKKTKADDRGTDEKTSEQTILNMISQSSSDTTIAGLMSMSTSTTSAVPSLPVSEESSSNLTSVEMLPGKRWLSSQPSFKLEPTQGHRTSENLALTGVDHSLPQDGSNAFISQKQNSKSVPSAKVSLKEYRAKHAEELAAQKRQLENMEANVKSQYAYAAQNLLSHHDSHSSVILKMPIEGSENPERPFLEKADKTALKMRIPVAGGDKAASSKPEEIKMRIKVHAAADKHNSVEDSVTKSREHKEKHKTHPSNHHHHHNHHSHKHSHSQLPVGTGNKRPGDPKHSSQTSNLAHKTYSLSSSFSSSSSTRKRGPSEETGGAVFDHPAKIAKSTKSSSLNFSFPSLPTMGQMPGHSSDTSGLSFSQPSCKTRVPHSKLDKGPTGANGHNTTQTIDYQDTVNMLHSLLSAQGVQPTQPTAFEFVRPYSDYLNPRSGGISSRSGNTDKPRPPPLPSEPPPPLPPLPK
Source text: (§1) The mechanism of this method is shown in formula (II).
(§2) Data was processed with Prism4 Software (GraphPad), and the curve fitting formula was:
(§3) Y=Bottom+(Top−Bottom)/(1+10^((Log IC50−X)*HillSlope)); wherein, Y is percent inhibition (%); X is logarithm of concentration of the inhibitor.

[5] = target: CDK2/cyclin E (Homo sapiens (Human), UniProt P24941); assay: as above; format: biochemical
Source text: as §1, §2, §3

[6] = system: Human colorectal cancer cells (colo-205); assay: MTS cell viability assay (cell proliferation); format: cell-based; details: colo-205 cells, 7 days of exposure
Procedure: Effects of test compounds on in vitro proliferation were measured by MTS cell viability assay.
Human colorectal cancer cells (colo-205) is expanded in culture (colo-205 is grown in DMEM media with 12% FBS, 1% P/S, and 1% L-glutamine).
MTS Cell Viability Assay:
1. Seed cells at density of 4×10^3 cells per well of 96-wells plates, grow for 24 h;
2. Add varying concentrations of test compounds to the cells;
3. Incubate for 7 days of exposure;
4. Prepare reagents following the instructions in the Cell Proliferation Assay kit (Promega);
5. Change to serum-free medium with a final volume of 100 μl/well. Prepare a set of wells with medium only for background subtraction;
6. Add 20 μl MTS solution containing PMS to each well (final concentration of MTS will be 0.33 mg/mL);
7. Incubate 1 to 4 h at 37° C. in a humidified, 5% CO2 atmosphere;
8. Record absorbance at 490 nm using VICTOR™ X5 plate reader (PerkinElmer).
All experimental points were set up in three wells and all experiments were repeated at least three times.

[7] = target: CDK6/cycD3 (Homo sapiens (Human), UniProt Q00534); assay: CDK kinase assay (Caliper, FAM-labeled peptide); details: read-out: IC50(CDK6); CDK6/cycD3, ATP 800 μM
Sequence of CDK6/cycD3 (Q00534 whole entry, species assumed): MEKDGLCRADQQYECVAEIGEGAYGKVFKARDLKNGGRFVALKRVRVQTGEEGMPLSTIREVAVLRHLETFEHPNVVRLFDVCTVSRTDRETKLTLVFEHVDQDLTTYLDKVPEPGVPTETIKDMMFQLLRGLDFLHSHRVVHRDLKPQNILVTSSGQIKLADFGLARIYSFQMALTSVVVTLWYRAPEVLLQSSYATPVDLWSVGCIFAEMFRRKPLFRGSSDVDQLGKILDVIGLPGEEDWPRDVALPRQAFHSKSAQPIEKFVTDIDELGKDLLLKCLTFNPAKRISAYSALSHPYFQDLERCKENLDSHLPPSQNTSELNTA
Sequence of CDK6/cycD3 (P30281 whole entry partner, species assumed): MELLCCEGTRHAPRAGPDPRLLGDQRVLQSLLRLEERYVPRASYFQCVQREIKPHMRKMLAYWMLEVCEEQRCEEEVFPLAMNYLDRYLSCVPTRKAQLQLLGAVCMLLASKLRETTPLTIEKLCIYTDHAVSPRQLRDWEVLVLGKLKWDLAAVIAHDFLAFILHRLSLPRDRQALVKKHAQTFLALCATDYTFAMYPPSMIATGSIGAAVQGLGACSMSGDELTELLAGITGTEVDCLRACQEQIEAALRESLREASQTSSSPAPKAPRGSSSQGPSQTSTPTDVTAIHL

[8] = target: CDK4/CycD3 (Homo sapiens (Human), UniProt P11802); assay: CDK kinase assay (Caliper, FAM-labeled peptide)
Sequence of CDK4/CycD3 (P11802 whole entry, species assumed): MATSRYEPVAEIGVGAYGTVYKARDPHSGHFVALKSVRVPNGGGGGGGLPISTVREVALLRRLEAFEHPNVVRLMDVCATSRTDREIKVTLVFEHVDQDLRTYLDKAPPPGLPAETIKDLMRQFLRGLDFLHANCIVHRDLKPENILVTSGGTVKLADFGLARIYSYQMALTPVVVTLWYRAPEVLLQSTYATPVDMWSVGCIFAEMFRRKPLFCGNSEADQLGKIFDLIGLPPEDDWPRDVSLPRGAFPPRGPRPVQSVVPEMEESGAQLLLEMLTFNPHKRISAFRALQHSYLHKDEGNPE
Sequence of CDK4/CycD3 (P30281 whole entry partner, species assumed): as the sequence (P30281 whole entry partner, species assumed) above

[9] = 33P-ATP, P81 membrane, read-out: CDK kinase inhibitory activity IC50, CDK9/cyclin T1
[10] = text summary for CDK1/2/7/9, read-out: IC50 for inhibiting CDK9
[11] = 33P-ATP, P81 membrane, read-out: CDK kinase inhibitory activity IC50, CDK2/cyclin E
[12] = text summary for CDK1/2/7/9, read-out: IC50 for inhibiting CDK2
[13] = IC50(CDK4), head-to-head comparison of substituent site, class symbols

IC50 [1]: 40 nM
Structure (SMILES): CC1(C)CCCc2nc3c(F)cc(-c4nc(Nc5ccc(CN6CCNCC6)cn5)ncc4F)cc3n21 [Com. EX. 6, 5-fluoro-4-(6-fluoro-1,1-dimethyl-1,2,3,4-tetrahydrobenzo[4,5]imidazo[1,2-a]pyridin-8-yl)-N-(5-(piperazin-1-ylmethyl)pyridin-2-yl)pyri midin-2-amine, reference compound]

Structure (SMILES): CCN1CCN(Cc2ccc(Nc3ncc(F)c(-c4cc(F)c5nc6n(c5c4)C(C)CCC6)n3)nc2)CC1 (single isomer, unassigned) [Compound 2b, N-(5-((4-ethylpiperazin-1-yl)methyl)pyridin-2-yl)-5-fluoro-4-(6-fluoro-1-methyl-1,2,3,4-tetrahydrobenzo[4,5]imidazo[1,2-a]pyridin-8-yl)pyrimidin-2-amine]
anti-tumor activity (in words) [2]: excellent anti-tumor activity
observation (mortality) [3]: −
Body weight (weight loss) [3]: * (weight loss less than 5%)
IC50 [4, 9]: 649 nM
IC50 [4, 10]: > 400 nM
IC50 [5, 11]: 441 nM
IC50 [5, 12]: > 400 nM

Structure (SMILES): CCN1CCN(Cc2ccc(Nc3ncc(F)c(-c4cc(F)c5nc6n(c5c4)C(C)CCC6)n3)nc2)CC1 (stereo not drawn) [Compound 2, N-(5-((4-ethylpiperazin-1-yl)methyl)pyridin-2-yl)-5-fluoro-4-(6-fluoro-1-methyl-1,2,3,4-tetrahydrobenzo[4,5]imidazo[1,2-a]pyridin-8-yl)pyrimidin-2-amine]
IC50 [1]: > 300 nM
IC50 [6]: 53 nM
weight loss (in words) [3]: almost little weight loss
IC50 [4, 9]: 572 nM
IC50 [4, 10]: > 400 nM
IC50 [5, 11]: 474 nM
IC50 [5, 12]: > 400 nM

Structure (SMILES): CCN1CCN(Cc2ccc(Nc3ncc(F)c(-c4cc(F)c5nc(C)n(C(C)C)c5c4)n3)nc2)CC1 [LY2835219, Abemaciclib]
IC50 [6]: 136 nM
observation (mortality) [3]: −

Structure (SMILES): CCN1CCN(Cc2ccc(Nc3ncc(F)c(-c4cc(F)c5nc6n(c5c4)[C@H](C(C)C)COC6)n3)nc2)CC1 [Com. EX. 3b, (R)-N-(5-((4-ethylpiperazin-1-yl)methyl)pyridin-2-yl)-5-fluoro-4-(9-fluoro-4-isopropyl-3,4-dihydro-1 H-benzo[4,5]imidazo[2,1-c][1,4]oxazin-7-yl)pyrimidin-2-amine]
mice death in each group (6 mice) [3]: 4
observation (mortality) [3]: +
weight loss (in words) [3]: much more weight loss
Body weight (weight loss) [3]: *** (weight loss more than 10% and less than 30%)

IC50 [7]: 110 nM
IC50 [8]: 57 nM
Structure (SMILES): CC1CCCn2c1nc1c(F)cc(-c3ccnc(Nc4ccc(N5CCN(C)CC5)cn4)n3)cc12 (stereo not drawn) [Com. EX. No. 7, 4-(6-fluoro-4-methyl-1,2,3,4-tetra hydrobenzo[4,5]imidazo[1,2-a]pyridin-8-yl)-N-(5-(4-methylpiperazin-1-yl)pyridin-2-yl)pyrimidin-2-a mine]

Structure (SMILES): CCN1CCN(Cc2ccc(Nc3ncc(F)c(-c4cc(F)c5nc6n(c5c4)C(C)COC6)n3)nc2)CC1 (stereo not drawn) [Compound 16, N-(5-((4-ethylpiperazin-1-yl)methyl)pyridin-2-yl)-5-fluoro-4-(9-fluoro-4-methyl-3,4-dihydro-1H-benzo[4,5]imidazo[2,1-c][1,4]oxazin-7-yl)pyrimidin-2-amine]
weight loss (in words) [3]: almost little weight loss

IC50 [6]: 6640 nM
Structure (SMILES): CN1CCN(c2ccc(Nc3ncc(F)c(-c4cc(F)c5nc6n(c5c4)C4(CCC6)CC4)n3)nc2)CC1 [Com. EX. 1, 5-fluoro-4-(6-fluoro-3,4-dihydro-2 H-spiro[benzo[4,5]imidazo,[1,2-a]pyridine-1,1′-cyclopropan]-8-yl)-N-(5-(4-methylpiperazin-1-yl)pyridin-2-yl)pyrimidin-2-amine]

IC50 [8, 13]: 1000 to 2000 nM
Structure (SMILES): CCN1CCN(Cc2ccc(Nc3ncc(F)c(-c4cc(F)c5nc6n(c5c4)CCCC6C)n3)nc2)CC1 (stereo not drawn) [Com. EX. No. 10, N-(5((4-ethylpiperazin-l-yl)methyl)pyridin-2-yl)-5-fluoro-4-(6-fluoro-4-methyl-1,2,3,4-tetrahydrobenzo[4,5]imidazo[1,2-a]pyridin-8-yl) pyrimidin-2-amine]

Structure (SMILES): CCN1CCN(Cc2ccc(Nc3ncc(F)c(-c4cc(F)c5nc6n(c5c4)C(C)CCC6)n3)nc2)CC1 (single isomer, unassigned) [Compound 2a, N-(5-((4-ethylpiperazin-1-yl)methyl)pyridin-2-yl)-5-fluoro-4-(6-fluoro-1-methyl-1,2,3,4-tetrahydrobenzo[4,5]imidazo[1,2-a]pyridin-8-yl)pyrimidin-2-amine]
IC50 [4, 9]: 779 nM
IC50 [4, 10]: > 400 nM
IC50 [5, 11]: 596 nM
IC50 [5, 12]: > 400 nM

IC50 [6]: 8900 nM
Structure (SMILES): CN1CCN(c2ccc(Nc3ncc(F)c(-c4cc(F)c5nc6n(c5c4)CCCC6)n3)nc2)CC1 [Com. EX. 2, 5-fluoro-4-(6-fluoro-1,2,3,4-tetrahydrobenzo[4,5]imidazo[1,2-a]pyridin-8-yl)-N-(5-(4-methylpiperazin-1-yl)pyridin-2-yl)pyrimidin-2-amine]

IC50 [1]: 40 nM
Structure (SMILES): CC1(C)CCCc2nc3c(F)cc(-c4nc(Nc5ccc(N6CCN(C7COC7)CC6)cn5)ncc4F)cc3n21 [Com. EX. 5, 5-fluoro-4-(6-fluoro-1,1-dimethyl-1,2,3,4-tetrahydrobenzo[4,5]imidazo[1,2-a]pyridin-8-yl)-N-(5-(4-(oxetan-3-yl)piperazin-1-yl)pyridin-2-yl)pyrimidin-2-amine, reference compound]

IC50 [1]: > 300 nM
IC50 [6]: 78 nM
Structure (SMILES): CC1CCCc2nc3c(F)cc(-c4ccnc(Nc5ccc(N6CCN(C)CC6)cn5)n4)cc3n21 (stereo not drawn) [Compound 1, 4-(6-fluoro-1-methyl-1,2,3,4-tetrahydrobenzo[4,5]imidazo[1,2-a]pyridin-8-yl)-N-(5-(4-methylpiperazin-1-yl)pyridin-2-yl)pyrimidin-2-amine]

Structure (SMILES): CC[C@@H]1COCc2nc3c(F)cc(-c4nc(Nc5ccc(CN6CCN(CC)CC6)cn5)ncc4F)cc3n21 [Com. EX. 4b, (R)-4-(4-ethyl-9-fluoro-3,4-dihydro-1H-benzo[4,5]imidazo[2,1-c][1, 4]oxazin-7-yl)-N-(5-((4-ethylpiperazin-l-yl)methyl)pyridin-2-yl)-5-f luoropyimidin-2-amine]
mice death in each group (6 mice) [3]: 5
observation (mortality) [3]: +
weight loss (in words) [3]: much more weight loss
Body weight (weight loss) [3]: *** (weight loss more than 10% and less than 30%)

Structure (SMILES): CCN1CCN(Cc2ccc(Nc3ncc(F)c(-c4cc(F)c5nc6n(c5c4)C(C)COC6)n3)nc2)CC1 (single isomer, unassigned) [Compound 16b, N-(5-((4-ethylpiperazin-1-yl)methyl)pyridin-2-yl)-5-fluoro-4-(9-fluoro-4-methyl-3,4-dihydro-1H-benzo[4,5]imidazo[2,1-c][1,4]oxazin-7-yl)pyrimidin-2-amine]
IC50 [1]: > 300 nM
observation (mortality) [3]: −
Body weight (weight loss) [3]: * (weight loss less than 5%)

IC50 [8, 13]: 1000 to 2000 nM
Structure (SMILES): CCN1CCN(Cc2ccc(Nc3ncc(F)c(-c4cc(F)c5nc6n(c5c4)CC(C)CC6)n3)nc2)CC1 (stereo not drawn) [Com. EX. No. 8, N-(5-((4-ethylpiperazin-1-yl)methyl)pyridin-2-yl)-5-fluoro-4-(6-fluoro-2-methyl-1,2,3,4-tetrahydrobenzo[4,5]imidazo[1,2-a]pyridin-8-yl) pyrimidin-2-amine]

— US11053238B2, “Benzimidazole derivatives, preparation methods and uses thereof” (BETTA PHARMACEUTICALS CO., LTD, priority 2016, dated 2021)
